In patent US20050009151A1, “Methods for the stereospecific and enantiomeric enrichment of beta-amino acids” (Pharmacia Corporation, priority 2003, published 2005):

Columns and labels:
[1] = test system: β-aminotransferase from Alcaligenes eutrophus; experiment: Synthesis of β-amino acid from β-keto acid with cell lysate from Alcaligenes eutrophus; format: biochemical; settings: approximately 45 mM substrate, approximately 84 mM alanine, 47 hours
Protocol: (§1) A buffer consisting of 0.3M Tricine, 15 mM MgSO4, enough pyridoxal phosphate to impart a pale yellow color and 0.3M sodium glutamate (for deamination reactions) or 0.3 M 2-ketoglutarate monopotassium salt (for synthesis reactions) was prepared.
[…] Reactions were typically run at 1 ml scale with gentle shaking at 26° C.
(§2) 10 ul of 2N HCl was added to a plastic screw capped vial and 90ul of sample was then added. The pH of the mixture confirmed to be below 4 and the mixture was centrifuged in a microcentrifuge at maximum speed for about 2 minutes to remove precipitated materials.
Samples were derivatized using Marfey's reagent, N•-(2,4-dinitro-5-fluorophenyl)-L-alaninamide. A stock solution of 10 mg/mL in acetone of this reagent was prepared. Either 20 or 40 ul of bioconversion sample was added to 20 ul 1.3 M KHCO3. To this was added 80 ul of the stock reagent solution, the vial sealed tightly, and heated at 70° C. for 10 minutes. As needed, after cooling to room temperature, the heated samples were centrifuged to remove solids. The supernatants were analyzed using an Eclipse XDB-C8 column, 4.6×150 mm, eluting with methanol gradient in water, from 50% methanol to 100% methanol. Both solvents were acidified with 0.1% trifluoroacetic acid. […]

[2] = test system: gamma aminobutyrate transaminase; settings: J. Biochem 81, 1375-1381, 1977; cited from earlier work
[3] = test system: α-alanine aminotransferase; settings: J. Biochem 81, 1375-1381, 1977; cited from earlier work
[4] = test system: Alcaligenes eutrophus L-β-aminotransferase; experiment: Amino donor screen, production of β-phenylalanine from 3-keto-3-phenylpropionic acid; format: biochemical; settings: 200 mM amino donor, pyruvate decarboxylase, 24 hours
Protocol: The assays contained: 0.1-0.3 mg/ml protein, 10 mg/ml keto acceptor, 200 mM amino donor, 0.1 mM pyridoxal phosphate, and 100 mM potassium phosphate, at pH 8.0. 0.1 units of pyruvate decarboxylase was included to prevent the reversible reaction from reaching equilibrium. The reactions were run at 37° C. with gentle stirring for 24 hours. At 24 hours reaction time, 0.1 ml samples were withdrawn, acidified with addition of 0.1 ml 0.1N HCl, and centrifuged. The supernatant solution was collected into HPLC sample vials. Conversion of amino acid to the corresponding ketone was quantified using reverse phase HPLC. Amino donors screened were (L)-alanine, (D)-alanine, and β-alanine.

[5] = test system: Variovorax paradoxus β-aminotransferase; experiment: Synthesis of β-amino acid from β-keto acid with Variovorax paradoxus β-aminotransferase; format: biochemical; settings: sodium sulfate purified β-aminotransferase, 3 hours
Protocol: as §1
One part buffer was combined with two parts lysate and this mixture was then added to pre-weighed substrate to give a concentration of 1 mg/ml substrate. Reactions were typically run at 1 ml scale with gentle shaking at 26° C.
as §2
Samples were derivatized using Marfey's reagent, N•-(2,4-dinitro-5-fluorophenyl)-L-alaninamide. A stock solution of 10 mg/mL in acetone of this reagent was prepared. Either 20 or 40 ul of bioconversion sample was added to 20 ul 1.3 M KHCO3. To this was added 80 ul of the stock reagent solution, the vial sealed tightly, and heated at 70° C. for 10 minutes. As needed, after cooling to room temperature, the heated samples were centrifuged to remove solids. The supernatants were analyzed using an Eclipse XDB-C8 column, 4.6×150 mm, eluting with methanol gradient in water, from 50% methanol to 100% methanol. Both solvents were acidified with 0.1% trifluoroacetic acid.
For synthesis experiments, in which β-keto acid was converted to β-amino acid, the area of the peak(s) was compared to a standard curve derived for β-phenylalanine.

Row | SMILES | activity on substrate [2] | activity on substrate [3] | utilized by the enzyme as an amino donor in the production of β-phenylalanine [4] | also measured
1 | O=C(O)CC(=O)c1ccccc1F [3-(2-Fluorobenzene)beta-oxopropanoic acid] | – | – | – | 2-fluoro-beta-phenylalanine formed, using beta-phenylalanine as standard [1]: approximately 0.1 mg/mL
2 | NCCCC(=O)O [gamma aminobutyrate] | 100 | 43 | – | –
3 | C[C@H](N)C(=O)O [(L)-alanine] | – | – | utilized by the enzyme as an amino donor | –
4 | NCCC(=O)O [β-alanine] | 3 | 100 | Only (L)-alanine was utilized by the enzyme | –
5 | C[C@@H](N)C(=O)O [(D)-alanine] | – | – | Only (L)-alanine was utilized by the enzyme | –
6 | O=C(O)C(=O)Cc1ccccc1F [o-fluoro-phenyl-2-oxopropanoic acid] | – | – | – | product stereoisomer peak observed [5]: only later eluting peak was observed; β-amino acid formed, using β-phenylalanine as standard [5]: approximately 0.02 mg/mL
